Measurements as given in patent US20230293485A1, “APPLICATION OF ARTEMISININ COMPOUND IN TREATMENT OF CORONAVIRUS INFECTION” (ACADEMY OF MILITARY MEDICAL SCIENCES, priority 2020, published 2023).
Where two headings read alike, the source gives them in different places.

How the values were obtained:
[1] = test system: Vero E6 cells; assay: Detection of drug cytotoxicity by CCK-8 kit; type: cell-based; conditions: for Cell viability (% of negative control): 48 h
Procedure: The detection of drug cytotoxicity was performed by CCK-8 kit (Beoytime). Specific steps were as follows:
(1) 1×10^4 Vero E6 (ATCC) cells were inoculated into a 96-well plate and cultured at 37° C. for 8 hours.
(§1) (2) The test drug was diluted with DMSO to achieve an appropriate stock solution concentration, and then diluted with MEM medium (purchased from Gibco, Cat. No. 10370021) containing 2% FBS (purchased from Gibco, Cat. No. 16000044) to the same concentration as that for the drug treatment. The original medium in the 96-well plate was discarded, 100 μL of drug-containing MEM medium was added to the cells, and three replicate wells were made for each concentration. Negative controls (adding DMSO and medium to the cell wells without adding drug) and blank controls (no cells, adding DMSO and medium) were set. After the drug was added, the cells were cultured at 37° C. for 48 hours.
(3) 20 μL of CCK-8 solution (Beoytime) was added to the wells to be tested, mixed gently without generating air bubbles, and continued to incubate at 37° C. for 2 hours. OD450 was read on a microplate reader (purchased from Molecular Devices, model SpectraMax M5), and cell viability was calculated:
Cell viability (%)=(A(drug treatment group)−A(blank control))/(A(negative control)−A(blank control))×100%
wherein A represents reading of microplate reader.
as §1, with “of the” for “of”

[2] = test system: SARS-CoV-2; type: cell-based; conditions: for Number of copies of viral genome (MOI = 0.05): Vero E6, 48 h; for Inhibitory activity on viral RNA load: dependence on dose (in words) / Viral nucleic acid load in vero E6 cells infected with SARS-CoV-2 (in words): 48 h after infection

| Structure (SMILES) | Cell viability (% of negative control) ([1]; 0.78 μM drug) | Cell viability (% of negative control) ([1]; 1.56 μM drug) | Cell viability (% of negative control) ([1]; 3.13 μM drug) | Cell viability (% of negative control) ([1]; 6.25 μM drug) | Cell viability (% of negative control) ([1]; 12.5 μM drug) | Cell viability (% of negative control) ([1]; 25 μM drug) | Cell viability (% of negative control) ([1]; 50 μM drug) | Cell viability (% of negative control) ([1]; 100 μM drug) | Number of copies of viral genome (MOI = 0.05) ([2]; 3.13 μM drug) [copies] | Number of copies of viral genome (MOI = 0.05) ([2]; 6.25 μM drug) [copies] | Number of copies of viral genome (MOI = 0.05) ([2]; 12.5 μM drug) [copies] | Number of copies of viral genome (MOI = 0.05) ([2]; 25 μM drug) [copies] | Number of copies of viral genome (MOI = 0.05) ([2]; 50 μM drug) [copies] | Inhibitory activity on viral RNA load: dependence on dose (in words) [2] | Viral nucleic acid load in vero E6 cells infected with SARS-CoV-2 (in words) [2] | Cell viability (% of negative control) ([1]; 200 μM drug) | Toxic effect on the cells (in words) ([1]; all the tested concentrations) | Number of copies of viral genome (MOI = 0.05) ([2]; 100 μM drug) [copies] | Number of copies of viral genome (MOI = 0.05) ([2]; 0.94 μM drug) [copies] | Number of copies of viral genome (MOI = 0.05) ([2]; 1.88 μM drug) [copies] | other results |
| --- | --- | --- | --- | --- | --- | --- | --- | --- | --- | --- | --- | --- | --- | --- | --- | --- | --- | --- | --- | --- | --- |
| C=C1C(=O)O[C@@]23[C@H]1CC[C@@H](C)[C@@H]2CC[C@@]1(C)O[C@@H]31 [arteannuin B] | 93.55 % of negative control | 90.63 % of negative control | 94.86 % of negative control | 102.66 % of negative control | 111.44 % of negative control | 95.10 % of negative control | 74.40 % of negative control | 26.24 % of negative control | 99188163 | 98310684 | 13307075 | 342654 | 176411 | dose-dependent | effectively reduced viral nucleic acid load |  |  |  |  |  | Toxic effect on the cells (in words) ([1]; at 25 μM or lower): no toxic effect; Toxic effect on the cells (in words) ([1]; at 50 μM): a certain toxicity; Number of copies of viral genome (MOI = 0.05) ([2]; 1.56 μM drug): 99554711 copies; Inhibition of replication of SARS-CoV-2 virus genome in the infection supernatant (in words) ([2]; at 50 μM, 25 μM and 12.5 μM): effectively inhibit |
| CO[C@H]1O[C@@H]2O[C@@]3(C)CC[C@H]4[C@H](C)CC[C@@H]([C@H]1C)[C@@]24OO3 [artemether] |  | 107.12 % of negative control | 103.68 % of negative control | 115.71 % of negative control | 115.49 % of negative control | 118.96 % of negative control | 120.26 % of negative control | 130.18 % of negative control |  | 49305413 | 68497905 | 32850309 | 26849476 |  |  | 132.83 % of negative control | no toxic effect | 3326694 |  |  | Number of copies of viral genome (MOI = 0.05) ([2]; 200 μM drug): 250314 copies |
| C[C@@H]1CC[C@H]2[C@@H](C)C(=O)O[C@@H]3O[C@@]4(C)CC[C@@H]1[C@]32OO4 [artemisinin] |  | 98.45 % of negative control | 101.55 % of negative control | 104.23 % of negative control | 112.55 % of negative control | 104.26 % of negative control | 110.71 % of negative control | 109.14 % of negative control |  | 79058074 | 72012135 | 61918172 | 31079912 | dose-dependent | effectively reduced viral nucleic acid load | 97.14 % of negative control | no toxic effect | 37237188 |  |  | Number of copies of viral genome (MOI = 0.05) ([2]; 150 μM drug): 25440652 copies; Inhibition of replication of SARS-CoV-2 virus genome in the infection supernatant (in words) ([2]; at 150 μM, 100 μM and 50 μM): effectively inhibit |
| C[C@H]1[C@H](OC(=O)CCC(=O)O)O[C@@H]2O[C@@]3(C)CC[C@H]4[C@H](C)CC[C@@H]1[C@@]24OO3 [artesunate] | 100.09 % of negative control | 99.91 % of negative control | 97.52 % of negative control | 100.64 % of negative control | 93.38 % of negative control | 84.24 % of negative control | 55.44 % of negative control | 21.71 % of negative control | 170594446 | 113126147 | 111098018 | 70210200 |  | dose-dependent | effectively reduced viral nucleic acid load |  |  |  | 228511812 | 171362509 | Toxic effect on the cells (in words) ([1]; at 12.5 μM or lower): no toxic effect; Toxic effect on the cells (in words) ([1]; at 25 μM): a slight toxicity; Inhibition of replication of SARS-CoV-2 virus genome in the infection supernatant (in words) ([2]; at 25 μM, 12.5 μM and 6.25 μM): effectively inhibit |
| C[C@H]1[C@@H](O)O[C@@H]2O[C@@]3(C)CC[C@H]4[C@H](C)CC[C@@H]1[C@@]24OO3 [dihydroartemisinin] | 93.93 % of negative control | 98.80 % of negative control | 93.03 % of negative control | 100.38 % of negative control | 88.94 % of negative control | 66.36 % of negative control | 22.18 % of negative control | 2.33 % of negative control | 90162353 | 55425811 | 31485734 | 23363010 |  |  |  |  |  |  | 111625955 | 68962319 | Toxic effect on the cells (in words) ([1]; at 6.25 μM or lower): no toxic effect; Toxic effect on the cells (in words) ([1]; at 12.5 μM): a slight toxicity |
